Measured values from ChEMBL document CHEMBL1131586, “New antipsychotic agents with serotonin and dopamine antagonist properties based on a pyrrolo[2,1-b][1,3]benzothiazepine structure” (J Med Chem, 1998).

Tests used:
D(3) dopamine receptor = D(3) dopamine receptor (Rattus norvegicus, UniProt P19020)
Description: Binding affinity which represents concentration giving half-maximal inhibition of [3H]7-OH-DPAT binding to Dopamine receptor D3 in rat tissue homogenate

[1] = molecular target: Sodium-dependent dopamine transporter (Rattus norvegicus) (UniProt P23977); assay: Inhibition of dopamine uptake from dopamine uptake site
Rattus norvegicus [2] = assay: Effect of compound on apomorphine induced locomotor hyperactivity (APO-induced LMA), […] at 1 umol/kg upon subcutaneous administration; LMA (locomotor activity); type: functional
Rattus norvegicus [3] = assay: Effect of compound on […], […] at 3 umol/kg upon subcutaneous administration; Catalepsy = 0/4; type: functional
Rattus norvegicus [4] = assay: Effect of compound on apomorphine induced locomotor hyperactivity (APO-induced LMA), […] at 10 umol/kg upon subcutaneous administration; LMA (locomotor activity); type: functional
Rattus norvegicus [5] = assay: Effect of compound on apomorphine induced locomotor hyperactivity (APO-induced LMA), […] at 3 umol/kg upon subcutaneous administration; LMA (locomotor activity); type: functional
Rattus norvegicus [6] = assay: Effect of compound on […], […] at 1 umol/kg upon subcutaneous administration; Catalepsy = 0/4; type: functional
Rattus norvegicus [7] = assay: Effect of compound on […], […] at 10 umol/kg upon subcutaneous administration; Catalepsy = 1/4; type: functional
Rattus norvegicus [8] = assay: Effect of compound on […], […] at 30 umol/kg upon subcutaneous administration; Catalepsy = 4/4; type: functional
Rattus norvegicus [9] = assay: Effect of compound on apomorphine induced locomotor hyperactivity (APO-induced LMA), […] at 30 umol/kg upon subcutaneous administration; LMA (locomotor activity); type: functional
Rattus norvegicus [10] = assay: Effect of compound on […], […] at 10 umol/kg upon subcutaneous administration; Catalepsy = 0/4; type: functional
[11] = molecular target: T1, Serotonin 2 (5-HT2) receptor (Rattus norvegicus, UniProt P30994+P08909+P14842)
Description: Binding affinity which represents concentration giving half-maximal inhibition of [3H]ketanserin binding to 5-hydroxytryptamine 2 receptor rat tissue homogenate

[12] = molecular target: T1, Serotonin 2 (5-HT2) receptor; remark: listed apart in the source
Description: pKi value for 5-hydroxytryptamine 2 receptor binding site

Rattus norvegicus [13] = assay: Effect of compound on […], […] at 30 umol/kg upon subcutaneous administration; Catalepsy = 0/4; type: functional

Sequence of D(3) dopamine receptor (P19020 whole entry): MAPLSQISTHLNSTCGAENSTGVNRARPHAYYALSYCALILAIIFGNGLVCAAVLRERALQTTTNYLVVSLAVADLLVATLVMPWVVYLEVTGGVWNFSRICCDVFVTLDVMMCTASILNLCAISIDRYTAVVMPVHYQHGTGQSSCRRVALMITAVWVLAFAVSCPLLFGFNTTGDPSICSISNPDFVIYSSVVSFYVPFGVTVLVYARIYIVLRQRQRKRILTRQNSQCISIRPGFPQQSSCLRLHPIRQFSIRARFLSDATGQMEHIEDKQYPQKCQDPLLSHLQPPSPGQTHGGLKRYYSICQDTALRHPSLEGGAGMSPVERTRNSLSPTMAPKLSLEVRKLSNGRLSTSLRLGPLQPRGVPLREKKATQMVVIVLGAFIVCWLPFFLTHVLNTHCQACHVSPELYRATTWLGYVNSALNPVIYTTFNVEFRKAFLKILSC
Sequence of Sodium-dependent dopamine transporter (Rattus norvegicus) (P23977 whole entry, looked up): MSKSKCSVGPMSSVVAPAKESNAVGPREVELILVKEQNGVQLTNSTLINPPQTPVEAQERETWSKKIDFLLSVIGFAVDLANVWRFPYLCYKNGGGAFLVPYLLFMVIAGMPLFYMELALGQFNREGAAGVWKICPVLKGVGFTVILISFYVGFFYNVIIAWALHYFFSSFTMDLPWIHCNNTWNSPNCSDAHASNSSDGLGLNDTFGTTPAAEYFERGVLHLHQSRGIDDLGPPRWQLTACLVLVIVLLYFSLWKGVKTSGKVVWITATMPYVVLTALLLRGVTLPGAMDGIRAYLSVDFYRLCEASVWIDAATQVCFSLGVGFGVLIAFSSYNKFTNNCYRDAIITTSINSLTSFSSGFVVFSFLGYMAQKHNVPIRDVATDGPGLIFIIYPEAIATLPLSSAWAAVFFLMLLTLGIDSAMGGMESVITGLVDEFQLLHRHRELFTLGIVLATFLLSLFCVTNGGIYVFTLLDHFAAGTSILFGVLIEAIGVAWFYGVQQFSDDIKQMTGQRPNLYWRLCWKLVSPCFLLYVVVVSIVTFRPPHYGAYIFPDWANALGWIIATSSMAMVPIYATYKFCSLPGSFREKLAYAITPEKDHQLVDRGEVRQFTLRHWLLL

CN1CCN(C2Cn3cccc3Sc3ccc(Cl)cc32)CC1 (racemic)
Ki (D(3) dopamine receptor): 0.0041 µM
IC50 [1]: 6.5 µM

CN1CCN(C2Cn3cccc3Sc3ccc(Cl)cc32)CC1.Cl.Cl (racemic)
LMA (Rattus norvegicus [2]): 877
Catalepsy (Rattus norvegicus [3]): 0
LMA (Rattus norvegicus [4]): 43
LMA (Rattus norvegicus [5]): 40
Catalepsy (Rattus norvegicus [6]): 0
Catalepsy (Rattus norvegicus [7]): 1
Catalepsy (Rattus norvegicus [8]): 4
LMA (Rattus norvegicus [9]): 39

Cc1cc2c(s1)Nc1ccccc1N=C2N1CCN(C)CC1 [OLANZAPINE]
Catalepsy (Rattus norvegicus [10]): 0
LMA (Rattus norvegicus [2]): 323
LMA (Rattus norvegicus [4]): 47
Ki [11]: 0.012 µM
Catalepsy (Rattus norvegicus [6]): 0
Log Ki [12]: -7.9
Catalepsy (Rattus norvegicus [13]): 0
LMA (Rattus norvegicus [9]): 4
